Assay results reported in US4859668A, “Method of inhibiting the growth of melanin-pigmented cells” (North Carolina State University, priority 1988, dated 1989).
≈ marks a conversion by molar mass, not a printed value. Read-outs that look alike come from different tables or passages of the source.

Key:
NP [1] = experiment: cells; conditions: Mus musculus, 1.5 h, read-out: Effect on Growth Rate (inhibition), NP
Procedure: (§4) These cell cultures include low passage HFH (HFH-LP), a pigmented line derived from the B-16 mouse melanoma, and NP, an amelanotic clone of HFH-LP. […] These cells were maintained as monolayers in Corning plastic flasks in Minimum Essential Medium (Eagle) with Earle's salts supplemented with 10% fetal bovine serum, 100 units of penicillin, 100 mg of streptomycin and 5 mg of amphotericin B per ml in 5% CO2 humidified air at 37° C.
(§5) Prior to dose-response studies, single cell suspensions were prepared in medium following trypsinization and inoculated into Falcon Multiwell plates (2 cm^2 wells) at 3.5×10^4 cells per 0.5 ml of medium. Cultures were maintained for 24 hours before exposure.
(§6) This stock solution was used to prepare test concentrations of the drug in culture medium. […] Cells were exposed to each of these concentrations by adding 0.5 ml of each of the solutions to triplicate test wells and incubating the cells under exposure at 37° C. for 1 hour. […] Cells were harvested after 48 hours and counted with a hemacytometer.

S91 melanoma = experiment: Effects of Various Cyclic Amines on Growth of Pigmented Melanoma Cells (Table III), S91; assay type: cell-based, mouse; conditions: Mus musculus, read-out: Percent Inhibition, S91 melanoma
Procedure: (§1) Pigmented S91 melanoma and unpigmented L929 fibroblast cells were treated with various cyclic amines at a concentration of 13.8 mM as described in Example 1 above.

[2] = Effect of Cyclic Amines on Survival of Pigmented Melanoma (Table II), L929; conditions: mouse, l929 cells
Procedure: (§7) These cells were maintained as monolayers in Corning plastic flasks in Minimum Essential Medium (Eagle) with Earle's salts supplemented with 10% fetal bovine serum, 100 units of penicillin, 100 mg of streptomycin and 5 mg of amphotericin B per ml in 5% CO2 humidified air at 37° C.
as §5, §6

[3] = tested on: S91 (Cloudman S91 mouse melanoma); experiment: Effect of Cyclic Amines on Survival of Pigmented Melanoma (Table II), S91; conditions: 24 h, read-out: percentage dead, S91
Procedure: as §7, §5, §6

HFH-LP [4] = experiment: Effect of Cyclic Amines on Growth Rate of Pigmented Melanoma (Table I), HFH-LP; assay type: cell-based, mouse; conditions: for inhibition at 13800 µM: Mus musculus, read-out: Effect on Growth Rate (inhibition), HFH-LP
Procedure: as §4, §5, §6

L929 fibroblast = experiment: Effects of Various Cyclic Amines on Growth of Pigmented Melanoma Cells (Table III), L929; assay type: cell-based, mouse; conditions: Mus musculus, read-out: Percent Inhibition, L929 fibroblast
Procedure: as §1

melanin-pigmented cells = experiment: In vitro selective inhibition of melanin-pigmented cells, effective dosage/time regimens; assay type: cell-based
HFH-LP [5] = experiment: Effect of Cyclic Amines on Survival of Pigmented Melanoma (Table II), HFH-LP; conditions: Mus musculus, 24 h, read-out: percentage dead, HFH-LP
Procedure: as §7, §5, §6

BHK [6] = experiment: cells; conditions: Mesocricetus auratus, 48 h, read-out: Growth inhibition, Morph. Alone vs. control
Excerpt: (§8) These cell cultures include low passage HFH (HFH-LP), a pigmented line derived from the B-16 mouse melanoma, and NP, an amelanotic clone of HFH-LP. High passage HFH (HFH-HP) was derived from HFH-LP after 30 passages in vitro. […] These cell cultures further include Cloudman S91 mouse melanoma, RPMI 1846 (a Syrian hamster melanoma), baby hamster kidney (BHK) and Chinese hamster ovary (CHO). These cells were maintained as monolayers in Corning plastic flasks in Minimum Essential Medium (Eagle) with Earle's salts supplemented with 10% fetal bovine serum, 100 units of penicillin, 100 mg of streptomycin and 5 mg of amphotericin B per ml in 5% CO2 humidified air at 37° C.
(§9) Single cell suspensions were prepared as described above. Twenty-four hours after seeding, the cells were exposed to either (a) culture medium alone, or (b) culture medium containing 0.5 mM theophylline.
(§10) The values given are the mean from 6 replicates.

[7] = tested on: HFH-LP (pigmented line derived from the B-16 mouse melanoma); experiment: cells
Procedure: (§2) The Figure illustrates the effect of morpholine on the growth rate of HFH-LP (*), NP (0), BHK (+) and CHO (#) 48 hours after treatment. Values represent the mean ± S.E. for 3 to 6 determinations.

[8] = tested on: baby hamster kidney (BHK); experiment: cells; conditions: Mesocricetus auratus, 48 h, read-out: ID50 (growth)
Procedure: as §2

[9] = tested on: NP (amelanotic clone of HFH-LP); experiment: cells; conditions: Mus musculus, 48 h, read-out: ID50 (growth)
Procedure: as §2

[10] = tested on: Chinese hamster ovary (CHO); experiment: cells; conditions: Cricetulus griseus, 48 h, read-out: ID50 (growth)
Procedure: as §2

RPMI-1641 [11] = experiment: cells; conditions: Mesocricetus auratus, 48 h, read-out: Growth inhibition, Morph. Alone vs. control
Excerpt: as §8, §9, §10

HFH = experiment: cells; conditions: Homo sapiens, read-out: Percent Cell Detachment
Procedure: (§3) HFH and SH heavily pigmented cells, S91 lightly pigmented cells, and BHK nonpigmented cells were exposed to 13.8 mM morpholine for time periods ranging from 1 hour to 56 hours. The procedure was otherwise the same as described in Example 1 above. Cell death is indicated by cell detachment.

BHK [12] = experiment: cells; conditions: Mesocricetus auratus, read-out: Percent Cell Detachment
Procedure: as §3

S91 = experiment: cells; conditions: Mus musculus, read-out: Percent Cell Detachment
Procedure: as §3

SH = experiment: cells; conditions: read-out: Percent Cell Detachment
Procedure: as §3

[13] = tested on: unpigmented cell lines NP, BHK and CHO
Procedure: as §2

in vitro = conditions: mouse, l929 cells
Procedure: as §7, §5, §6

HFH-LP [14] = experiment: cells; conditions: Mus musculus, 48 h, read-out: Growth inhibition, Morph. Alone vs. control
Excerpt: as §8, §9, §10

L929 = experiment: cells; conditions: Mus musculus, L929, 48 h, read-out: Growth inhibition, Morph. Alone vs. control
NP [15] = experiment: cells; conditions: Mus musculus, 48 h, read-out: Growth inhibition, Morph. Alone vs. control
Excerpt: as §8, §9, §10

RPMI-1641 [16] = conditions: RPMI 1641, morpholine alone
Excerpt: as §8, §9, §10

Excerpt for HFH-HP: as §8, §9, §10

Compound: C1CCNCC1 [piperidine]
- inhibition at 13800 µM (NP [1]): 0%
- inhibition at 13800 µM (S91 melanoma; S91, 1 h): 98%
- cytotoxicity at 24 h, 13800 µM [2]: -115 ± 14%
- cytotoxicity at 13800 µM [3]: 44 ± 3%
- inhibition at 13800 µM (HFH-LP [4]; 1.5 h): 42 ± 4%
- inhibition of pigmented cell line HFH-LP (in words) (HFH-LP [4]; not as effective as morpholine at the dosage tested): selectively inhibitory to the pigmented cell line HFH-LP, although not as effective as morpholine
- inhibition at 13800 µM (L929 fibroblast; L929, 1 h): 0%
- in vitro effectiveness of dosage/time regimen (melanin-pigmented cells; 13.8 mM for 1 hour): effective in vitro for inhibiting the growth of melanin-pigmented cells with little or no effect upon unpigmented cells
- cytotoxicity at 13800 µM (HFH-LP [5]): 33 ± 2%

Compound: C1COCCN1 [morpholine]
- inhibition at 13800 µM (NP [1]): 0%
- inhibition at 1200 µg/mL (BHK [6]): 0%
- inhibition at 13800 µM (S91 melanoma; S91, 1 Hour Exposure to 13.8 mM): 60%
- IC50 ([7]; Mus musculus, 48 h, read-out: ID50 (growth)): 1200 µg/mL (≈ 13.8 mM)
- inhibition of pigmented HFH cell line compared with unpigmented cell lines ([7]; at 1200 and 2400 ug/ml): inhibited significantly more (P<0.05)
- inhibition of pigmented cells ([7]; up to, 300-2400 ug/ml, 48 hours after treatment): up to 90%
- IC50 [8]: > 2400 µg/mL
- IC50 [9]: > 2400 µg/mL
- IC50 [10]: > 2400 µg/mL
- inhibition at 1200 µg/mL (RPMI-1641 [11]): -6%
- cytotoxicity at 13800 µM (HFH; 1 h): 0%
- cytotoxicity at 13800 µM (HFH; 6 h): 40%
- cytotoxicity at 13800 µM (HFH; 12 h): 100%
- cytotoxicity at 13800 µM (HFH; 18 h): 100%
- cytotoxicity at 13800 µM (HFH; 24 h): 100%
- cytotoxicity at 13800 µM (HFH; 56 h): 100%
- cytotoxicity at 13800 µM (BHK [12]; 1 h): 0%
- cytotoxicity at 13800 µM (BHK [12]; 6 h): 0%
- cytotoxicity at 13800 µM (BHK [12]; 12 h): 0%
- cytotoxicity at 13800 µM (BHK [12]; 18 h): 0%
- cytotoxicity at 13800 µM (BHK [12]; 24 h): 20%
- cytotoxicity at 13800 µM (BHK [12]; 56 h): 100%
- cytotoxicity at 13800 µM (S91; S91, 1 h): 0%
- cytotoxicity at 13800 µM (S91; S91, 6 h): 50%
- cytotoxicity at 13800 µM (S91; S91, 12 h): 100%
- cytotoxicity at 13800 µM (S91; S91, 18 h): 100%
- cytotoxicity at 13800 µM (S91; S91, 24 h): 100%
- cytotoxicity at 13800 µM (S91; S91, 56 h): 100%
- cytotoxicity at 13800 µM (SH; 1 h): 0%
- cytotoxicity at 13800 µM (SH; 6 h): 0%
- cytotoxicity at 13800 µM (SH; 12 h): 5%
- cytotoxicity at 13800 µM (SH; 18 h): 80%
- cytotoxicity at 13800 µM (SH; 24 h): 80%
- cytotoxicity at 13800 µM (SH; 56 h): 100%
- cytotoxicity at 13800 µM [3]: 55 ± 6%
- inhibition at 13800 µM (HFH-LP [4]; 13.8 mM for 1.5 hr, mean ± S.E., 6 replicates): 97 ± 19%
- inhibition at 13800 µM (L929 fibroblast; L929, 1 Hour Exposure to 13.8 mM): 0%
- difference between unpigmented cell lines ([13]; any of the dosages tested): did not differ significantly from one another
- inhibition of nonpigmented cell growth ([13]; higher dosages, 48 hours after treatment): 20%
- effect on nonpigmented cell growth ([13]; low dosages, 48 hours after treatment): not affected
- in vitro effectiveness of dosage/time regimen (melanin-pigmented cells; 2.3 mM for 6 days): effective in vitro for inhibiting the growth of melanin-pigmented cells with little or no effect upon unpigmented cells
- in vitro effectiveness of dosage/time regimen (melanin-pigmented cells; 13.8 mM for 1 hour): effective in vitro for inhibiting the growth of melanin-pigmented cells with little or no effect upon unpigmented cells
- selective toxicity to melanoma cells in vitro (melanin-pigmented cells; 750 ppm (9mM) or 500 ppm (5mM)): selectively toxic to melanoma cells in vitro
- cytotoxicity at 13800 µM (HFH-LP [5]): 30 ± 7%
- cytotoxicity at 24 h, 13800 µM (in vitro): -101 ± 15%
- greater toxicity of morpholine with theophylline pretreatment (HFH-HP; growth inhibition increasing from 25% to 54%): twofold
- growth inhibition with theophylline pretreatment (HFH-HP; morpholine with theophylline pretreatment): 54%
- inhibition at 1200 µg/mL (HFH-LP [14]): 64%
- inhibition at 1200 µg/mL (L929): -68%
- inhibition at 1200 µg/mL (NP [15]): -9%
- growth rate with morpholine exposure alone (RPMI-1641 [16]): not inhibited
